Measured values: publication PMC11078216, “Discovery of potent and selective activity-based probes (ABPs) for the deubiquitinating enzyme USP30” (RSC Chemical Biology, 2024)
One block for each compound: values may come before it.

Experiments:
[1] = target: T1, DESI1 (Homo sapiens, UniProt Q6ICB0); test: ABPP chemical proteomics (LC-MS/MS) in HEK293T cells; format: cell-based
T1 construct: endogenous in cells; host or cells: HEK293T
T1 sequence (Q6ICB0 1-168): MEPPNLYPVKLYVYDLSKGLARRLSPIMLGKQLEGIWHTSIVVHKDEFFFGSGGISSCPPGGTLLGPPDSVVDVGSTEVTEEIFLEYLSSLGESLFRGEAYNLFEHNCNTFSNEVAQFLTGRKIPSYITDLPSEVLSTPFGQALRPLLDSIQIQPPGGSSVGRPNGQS
Method: (§1) To explore the selectivity of IMP-2587 and IMP-2586 across the whole proteome, we performed quantitative activity-based protein profiling (ABPP) in HEK293T cells following treatment with IMP-2587 or IMP-2586 (Fig. 3a). After ABP incubation, cells were lysed, and probe-labelled proteins were ligated to biotinylated capture reagents.[27] […] USP30 was outcompeted by corresponding parent inhibitors for each ABP (Fig. 5b and d and Tables S3 and S5, ESI ^†), confirming the high potency and rapid engagement of IMP-2587 and IMP-2586 in cells. […] DESI1 and DESI2 are small ubiquitin-related modifier (SUMO) proteases,[3,29–32] and IMP-2587 and IMP-2586 may offer a starting point for future development of DESI ABPs. […]
(§2) d) Live cell probe incubation, lysate click chemistry and precipitation 6-well HEK293T cells were incubated with media containing compounds ABP 2 and ABP 4 at indicated concentrations for 1 h at 37 °C. The cells were washed with PBS and lysed with lysis buffer (50 μL (1% (v/v) Triton X-100, 0.1% (w/v) sodium dodecyl sulfate (SDS), EDTA-free complete protease inhibitor cocktail (1×, Roche) in PBS on ice for 10 min. The lysates were scraped and transferred to corresponding Lo-Bind Eppendorfs. Each lysate was sonicated for 1 minute, and the samples centrifuges at 5,000 x g at 4 °C for 5 minutes to pellet insoluble cellular debris. The supernatant was collected, and protein concentration was determined using the DC Protein Assay (Bio-Rad) as per manufacturer’s instructions, and normalised to lowest concentrated sample (e.g. 1 mg/mL, using lysis buffer). The following “click mixture” was prepared separately, preparing 6 μL for every 100 μL of […]
(§3) Capture reagent (AzRB/AzT for ABP 2, YnT/YnB for ABP 4 10 mM in DMSO, 1 vol; final concentration […]
(§4) CuSO4 (50 mM in water, 2 vol; final concentration in reaction 1 mM)
(§5) TCEP (50 mM in water, 2 vol; final concentration in reaction 1 mM)
(§6) TBTA (10 mM in DMSO, 1 vol; final concentration in reaction 100 µM)
(§7) The click mixture was vortexed and incubated at room temperature for 2 min before 6 μL of the mixture was added to every 100 μL of lysate. The reaction mixtures were shaken at room temperature for 1 h before being quenched with EDTA (500 mM in H2O) to a final concentration of 10 mM.
(§8) Proteins were precipitated by adding H2O (1 vol), MeOH (2 vol) and CHCl3 (0.5 vol), vortexing briefly then centrifuging at 17,000 × g for 5 min. The top H2O/MeOH layer was discarded and the middle layer of protein pellet and lower CHCl3 layer retained. The suspension was washed with MeOH (300 μL), and sonicated to break up the pellet. The proteins were pelleted by centrifugation at 10,000–17000 × g for 5–10 min or until a compact pellet was formed. The protein pellet was washed once more with MeOH (1 mL). The pellet was resuspended by sonicating and completely dissolving in 1% (w/v) SDS in PBS (to 5 mg/mL protein) before being made up to 1 mg/mL protein with PBS. […]
(§9) f) Neutravidin biotin enrichment (Affinity pull-down)
(§10) Click chemistry and precipitation steps were carried out as described in section 3.2.d, on at least 400ug of protein per sample. The pellet was resuspended by sonicating and completely dissolving in 1% (w/v) SDS in HEPES 50 mM pH 8.0, before being made up to 1 mg/mL protein with HEPES 50 mM pH 8.0 to […]
(§11) achieve a final concentration of 0.2% SDS. 20uL of each samples was collected as TL (Total lysate) samples. Pull down of biotinylated proteins was achieved by incubating samples with pre-equilibrated (3x 1 mL washes with 0.2% (w/v) SDS in HEPES 50 mM pH 8 buffer) Pierce™ NeutrAvidin™ Agarose beads for 3 hours at room temperature. NeutrAvidin™ Agarose beads were used in ratio of 1 μL bead resin per 10ug of protein sample. The beads were subsequently washed by moderate shaking for 10 seconds then briefly pelleting by table-top centrifuge then vacuum aspirating the supernatant with fine-end pipette tips (to not disturb the agarose) after collecting 20 µL supernatant as SN (supernatant […]
(§12) ) samples. […]

[2] = target: T2, RTN3 (Homo sapiens, UniProt O95197); test: as above; format: cell-based
T2 construct: endogenous in cells; host or cells: HEK293T
T2 sequence (O95197 1-1032): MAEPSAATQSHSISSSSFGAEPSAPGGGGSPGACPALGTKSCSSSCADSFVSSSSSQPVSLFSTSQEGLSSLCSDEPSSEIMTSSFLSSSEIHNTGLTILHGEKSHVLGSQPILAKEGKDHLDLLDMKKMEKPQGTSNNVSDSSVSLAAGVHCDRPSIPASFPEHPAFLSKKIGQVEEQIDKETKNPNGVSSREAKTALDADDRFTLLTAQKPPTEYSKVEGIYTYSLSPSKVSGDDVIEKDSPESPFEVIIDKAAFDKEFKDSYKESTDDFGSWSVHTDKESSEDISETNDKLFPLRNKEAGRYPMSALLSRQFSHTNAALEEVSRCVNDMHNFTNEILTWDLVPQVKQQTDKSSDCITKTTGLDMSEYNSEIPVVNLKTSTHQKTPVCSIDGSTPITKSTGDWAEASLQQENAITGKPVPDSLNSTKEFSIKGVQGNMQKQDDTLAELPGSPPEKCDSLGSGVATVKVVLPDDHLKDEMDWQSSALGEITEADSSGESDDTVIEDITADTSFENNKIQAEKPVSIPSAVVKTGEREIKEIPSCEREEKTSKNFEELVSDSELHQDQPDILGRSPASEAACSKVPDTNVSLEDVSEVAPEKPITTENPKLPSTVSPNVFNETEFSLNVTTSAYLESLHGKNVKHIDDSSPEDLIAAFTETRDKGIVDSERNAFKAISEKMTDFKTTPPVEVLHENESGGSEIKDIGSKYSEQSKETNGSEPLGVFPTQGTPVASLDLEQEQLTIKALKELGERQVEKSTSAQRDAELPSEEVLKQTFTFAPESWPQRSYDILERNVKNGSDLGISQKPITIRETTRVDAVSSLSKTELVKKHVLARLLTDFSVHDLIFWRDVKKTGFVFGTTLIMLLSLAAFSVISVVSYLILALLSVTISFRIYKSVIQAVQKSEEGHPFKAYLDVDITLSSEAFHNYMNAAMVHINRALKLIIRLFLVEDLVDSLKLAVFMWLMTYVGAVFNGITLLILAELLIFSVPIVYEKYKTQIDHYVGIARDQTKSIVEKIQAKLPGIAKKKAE
Method: as §1, §2, §3, §4, §5, §6, §7, §8, §9, §10, §11, §12

[3] = IMP-2587 labelling vs DMSO, 30 nM, 10 min, HEK293T (Table S2, Fig.5a)
[4] = compound 1 out-competition with IMP-2587 labelling, HEK293T (Table S3, Fig.5b)
[5] = IMP-2586 labelling vs DMSO, 30 nM, 10 min, HEK293T (Table S4, Fig.5c)
[6] = compound 3 out-competition with IMP-2586 labelling, HEK293T (Table S5, Fig.5d)

SMILES: C#Cc1cccc(-c2cc(NC(=O)CC3CCN(C#N)C3)on2)c1 (centres unmarked) [IMP-2587]
Difference (log2 fold change of enrichment) [1, 3]: 3.61
Difference (log2 fold change of enrichment) [2, 3]: 1.07

Difference (log2 fold change of enrichment) [1, 4]: -3.45
Difference (log2 fold change of enrichment) [2, 4]: -0.64
SMILES: N#CN1CC[C@H](CC(=O)Nc2cc(-c3cccc(Cl)c3)no2)C1 [compound 1, reference compound]

SMILES: N#CN1CC[C@@H](NC(=O)c2cc(-c3ccccc3Oc3ccc(N=[N+]=[N-])cc3)n[nH]2)C1 [IMP-2586]
Difference (log2 fold change of enrichment) [1, 5]: 3.04
Difference (log2 fold change of enrichment) [2, 5]: 0.91

Difference (log2 fold change of enrichment) [1, 6]: -2.81
Difference (log2 fold change of enrichment) [2, 6]: -0.42
SMILES: N#CN1CC[C@@H](NC(=O)c2cc(-c3ccccc3Oc3ccccc3)n[nH]2)C1 [compound 3, reference compound]
